From ChEMBL document CHEMBL1201862, “PubChem BioAssay data set” (2004) come the findings set out here.

Test systems include 786-0; A549; COLO 205; EKVX; HT-29; IGROV-1; Malme-3M; NCI-H226; NCI-H522; OVCAR-3; OVCAR-8; SF-539; SNB-75; SR; TK-10; U-251; MCF7; MDA-N; PC-3.
Common to all, as to assay: NCI-60 cell line screen, 48 h

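Cultured in 96-well plates, cells were exposed to test compound for 48 hours across five concentrations. GI50: concentration for 50% inhibition of growth.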 Active and inactive are the calls of the source. No stated cut-off is given here; in the data, active = GI50 up to about 1.1 µM and inactive = higher. Where a SMILES comes first, the peptide text is derived from it. The star is where a group is joined. Boc = CC(C)(C)OC(=O)*; OBn = c1ccc(CO*)cc1

For the compound `CCOC(=O)C(CCC(N)=O)(CCC(=O)OC)C(=O)OCC`, the GI50 with 786-0, in the experiment with A549, with COLO 205, in the experiment on EKVX, in the experiment on HT-29 and in the experiment on IGROV-1 was > 100 µM (inactive) each time. The GI50 in the experiment on Malme-3M, in the experiment on NCI-H226, with NCI-H522, in the experiment with OVCAR-3, in the experiment on OVCAR-8 and in the experiment on SF-539 was > 100 µM (inactive) throughout. The GI50 in the experiment on SNB-75, in the experiment with SR, with TK-10 and in the experiment with U-251 was > 100 µM (inactive) in each case.

On to `CC[C@]1(Cc2ccc(OC)c(OC)c2)[C@@H]2C[C@@H](C3OCCO3)ON2O[C@H](OC2CCCC2(c2ccccc2)c2ccccc2)[C@@H]1OC(C)=O` (stereo partly drawn), for which the GI50 with 786-0 is 20 µM (inactive); with A549, 24 µM (inactive); in the experiment on COLO 205, 26.9 µM (inactive); in the experiment with EKVX it was 21.1 µM (inactive); with HT-29, 23.5 µM (inactive); in the experiment with IGROV-1, 23.3 µM (inactive). The GI50 was 22.5 µM (inactive) in the experiment on MCF7; 36.1 µM (inactive) in the experiment with MDA-N; 20.6 µM (inactive) in the experiment on NCI-H226; 15.1 µM (inactive) in the experiment on NCI-H522; 12.7 µM (inactive) in the experiment with OVCAR-3; 24.9 µM (inactive) with OVCAR-8. Besides, the GI50 was 24.4 µM (inactive) in the experiment on PC-3; 40.4 µM (inactive) with SF-539; 24 µM (inactive) in the experiment on SNB-75; 16.1 µM (inactive) in the experiment on SR; 45.3 µM (inactive) in the experiment with TK-10; 33.2 µM (inactive) in the experiment with U-251.

On to `CC(N)Cc1ccc(Cl)cc1` (stereo not drawn), for which the GI50 in the experiment on 786-0 was > 100 µM (inactive); in the experiment on A549 it was > 100 µM (inactive); in the experiment with COLO 205 it was > 100 µM (inactive); in the experiment with EKVX it was > 100 µM (inactive); in the experiment with HT-29, 50.8 µM (inactive); in the experiment with IGROV-1, 42.4 µM (inactive). The GI50 in the experiment on Malme-3M, with NCI-H226, in the experiment on NCI-H522, in the experiment with OVCAR-3, with OVCAR-8 and with SF-539 was > 100 µM (inactive) throughout. Besides, the GI50 with SNB-75, in the experiment with SR, in the experiment on TK-10 and in the experiment with U-251 was > 100 µM (inactive) throughout.

`O=C1Cc2c([nH]c3ccc([N+](=O)[O-])cc23)-c2ccccc2N1` [ALSTERPAULLONE]: the GI50 in the experiment with 786-0 was 0.406 µM (active); in the experiment with A549, 0.211 µM (active); in the experiment with COLO 205 it was 0.235 µM (active); in the experiment on EKVX, 0.652 µM (active); with HT-29 it was 0.389 µM (active); in the experiment on IGROV-1, 0.53 µM (active). The GI50 was 0.508 µM (active) with MCF7; 0.367 µM (active) with MDA-N; 9.08 µM (inactive) in the experiment with Malme-3M; 0.275 µM (active) in the experiment on NCI-H226; 1.22 µM (inactive) with NCI-H522; 0.158 µM (active) in the experiment on OVCAR-3. The GI50 in the experiment on OVCAR-8 was 0.446 µM (active); with PC-3 it was 0.836 µM (active); in the experiment with SF-539, 0.397 µM (active); with SNB-75, 0.804 µM (active); with TK-10, 0.757 µM (active); in the experiment with U-251, 0.471 µM (active).

For `C=C(C)[C@H]1CC(=O)[C@@]2(C)C[C@H]3O[C@]3(C)CC/C=C(\C)CC[C@H]12`, the GI50 in the experiment with 786-0 is 62.8 µM (inactive); with A549, 58.1 µM (inactive); in the experiment with COLO 205, 20.8 µM (inactive); with EKVX, 40.5 µM (inactive); with HT-29, 34.1 µM (inactive); with IGROV-1 it was 73.1 µM (inactive). For the same compound, the GI50 was 24.8 µM (inactive) in the experiment with MCF7; 49 µM (inactive) in the experiment on MDA-N; 44.6 µM (inactive) in the experiment with Malme-3M; 31.7 µM (inactive) in the experiment on NCI-H226; 37.1 µM (inactive) with NCI-H522; 29.9 µM (inactive) with OVCAR-3. The GI50 was 98.4 µM (inactive) in the experiment on OVCAR-8; 34.7 µM (inactive) with PC-3; 42 µM (inactive) in the experiment on SF-539; 58.3 µM (inactive) in the experiment on SNB-75; 22.2 µM (inactive) in the experiment on TK-10; 51.9 µM (inactive) in the experiment with U-251.

`Cc1cc(C2(O)C=C(C(C)(C)C)C(=O)C(C(C)(C)C)=C2)c(C)cc1C1(O)C=C(C(C)(C)C)C(=O)C(C(C)(C)C)=C1`: the GI50 in the experiment with 786-0, in the experiment on A549, in the experiment with COLO 205, in the experiment with EKVX, in the experiment with HT-29 and in the experiment on IGROV-1 was > 100 µM (inactive) throughout. Also, the GI50 in the experiment with MCF7, in the experiment with MDA-N, in the experiment with Malme-3M, in the experiment on NCI-H226, in the experiment on NCI-H522 and in the experiment on OVCAR-8 was > 100 µM (inactive) each time. The GI50 is > 100 µM (inactive) in the experiment with PC-3; > 100 µM (inactive) in the experiment with SF-539; > 100 µM (inactive) with SNB-75; 17.2 µM (inactive) in the experiment with SR; > 100 µM (inactive) in the experiment with TK-10; > 100 µM (inactive) in the experiment with U-251.

As to `COc1cccc(C(=O)N2CCc3ccccc32)c1OC`, the GI50 with 786-0 was > 100 µM (inactive); with A549, > 100 µM (inactive); in the experiment with COLO 205, 58.7 µM (inactive); with EKVX, > 100 µM (inactive); in the experiment with HT-29 it was 38.9 µM (inactive); in the experiment with IGROV-1, > 100 µM (inactive). Also, the GI50 is 60.4 µM (inactive) in the experiment with Malme-3M; 90.6 µM (inactive) in the experiment on NCI-H226; 47.6 µM (inactive) in the experiment with NCI-H522; 38.5 µM (inactive) in the experiment with OVCAR-3; 78.3 µM (inactive) with OVCAR-8; > 100 µM (inactive) in the experiment on SF-539. Besides, the GI50 was 68.4 µM (inactive) in the experiment with SNB-75, 29.4 µM (inactive) in the experiment on SR, 57.8 µM (inactive) in the experiment on TK-10 and 52.7 µM (inactive) in the experiment with U-251.

Take `Cc1nc2nnnn2c2c1C(=O)Nc1ccccc1N2`: the GI50 in the experiment with 786-0 was > 100 µM (inactive); in the experiment with A549 it was 62.1 µM (inactive); in the experiment on COLO 205, > 100 µM (inactive); in the experiment on EKVX, 79.8 µM (inactive); in the experiment on HT-29 it was > 100 µM (inactive); with IGROV-1, > 100 µM (inactive). In addition, the GI50 with Malme-3M, in the experiment on NCI-H226, with NCI-H522, in the experiment on OVCAR-3, in the experiment with OVCAR-8 and with SF-539 was > 100 µM (inactive) each time. Moreover, the GI50 in the experiment on SNB-75 is > 100 µM (inactive); in the experiment with SR, 18.7 µM (inactive); with TK-10, > 100 µM (inactive); with U-251, > 100 µM (inactive).

For the compound `ClC1=NSSC1(Cl)Cl`, the GI50 is 23.6 µM (inactive) with 786-0; > 100 µM (inactive) in the experiment on A549; 14.7 µM (inactive) with COLO 205; 58.3 µM (inactive) in the experiment with EKVX; 30.5 µM (inactive) in the experiment on HT-29; 61 µM (inactive) with IGROV-1. Also, the GI50 is 32.3 µM (inactive) in the experiment with MCF7; 27.7 µM (inactive) in the experiment on MDA-N; 28.6 µM (inactive) in the experiment with Malme-3M; > 100 µM (inactive) in the experiment on NCI-H226; 7.6 µM (inactive) with NCI-H522; 25.2 µM (inactive) in the experiment on OVCAR-3. For the same compound, the GI50 in the experiment with OVCAR-8 was 24.4 µM (inactive); in the experiment on PC-3, 61.7 µM (inactive); with SF-539, 40.5 µM (inactive); in the experiment with SNB-75, 41.7 µM (inactive); in the experiment with SR it was 21 µM (inactive); in the experiment on U-251, 56.6 µM (inactive).

Consider `COc1ccc(C(Cl)=C(c2ccc(OCCN(C)C)cc2)c2ccc(OCCN(C)C)cc2)cc1`, for which the GI50 with 786-0 was 1.27 µM (inactive); with A549, 1.83 µM (inactive); in the experiment on COLO 205, 1.39 µM (inactive); in the experiment on EKVX it was 5.11 µM (inactive); in the experiment on HT-29, 1.49 µM (inactive); in the experiment on IGROV-1, 3.03 µM (inactive). For the same compound, the GI50 in the experiment on Malme-3M is 1.81 µM (inactive); in the experiment with NCI-H226, 1.61 µM (inactive); in the experiment on NCI-H522, 1.57 µM (inactive); in the experiment with OVCAR-3, 2.09 µM (inactive); in the experiment with OVCAR-8, 1.87 µM (inactive); in the experiment with SF-539, 1.57 µM (inactive). Besides, the GI50 with SNB-75 is 1.44 µM (inactive); in the experiment with SR, 1.36 µM (inactive); with TK-10 it was 17.1 µM (inactive); in the experiment with U-251, 1.58 µM (inactive).

`CC(C)(C)OC(=O)NC(Cc1ccccc1)C(=O)NC(Cc1ccccc1)C(=O)NCC(=O)OCc1ccccc1` (stereo not drawn) (Boc-Phe-Phe-Gly-OBn; configuration not given here): the GI50 in the experiment with 786-0 was 17.1 µM (inactive); in the experiment on COLO 205, 29.8 µM (inactive); in the experiment with EKVX, 45 µM (inactive); in the experiment with HT-29 it was 16.7 µM (inactive); in the experiment on IGROV-1, 13.2 µM (inactive); in the experiment with MCF7 it was 51.5 µM (inactive). Besides, the GI50 in the experiment on MDA-N was 19.9 µM (inactive); in the experiment on Malme-3M it was 44.5 µM (inactive); with NCI-H522, 6 µM (inactive); in the experiment on OVCAR-3, 20 µM (inactive); in the experiment with OVCAR-8, 30.1 µM (inactive); in the experiment with PC-3, 16.3 µM (inactive). In addition, the GI50 was 19 µM (inactive) in the experiment on SF-539; 37.8 µM (inactive) with SNB-75; 18.4 µM (inactive) with SR; 19.7 µM (inactive) in the experiment with TK-10; 18.7 µM (inactive) in the experiment on U-251.

In the case of `O=C1C=CC2(CCCCCCC2=O)CC1` (stereo not drawn), the GI50 in the experiment on 786-0 is > 100 µM (inactive); in the experiment on A549, > 100 µM (inactive); in the experiment with COLO 205 it was 57 µM (inactive); with EKVX it was > 100 µM (inactive); in the experiment with HT-29 it was > 100 µM (inactive); in the experiment with IGROV-1 it was > 100 µM (inactive). For the same compound, the GI50 with Malme-3M is > 100 µM (inactive); in the experiment with NCI-H226, 42.6 µM (inactive); in the experiment on NCI-H522, > 100 µM (inactive); in the experiment on OVCAR-3 it was > 100 µM (inactive); in the experiment on OVCAR-8 it was > 100 µM (inactive); in the experiment on SF-539, > 100 µM (inactive). Moreover, the GI50 in the experiment with SNB-75 is 57.9 µM (inactive); in the experiment on SR it was > 100 µM (inactive); with TK-10 it was > 100 µM (inactive); in the experiment on U-251 it was > 100 µM (inactive).
